Measurements from PubChem BioAssay (NCI).
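Growth conditions: 96-well plates. Treatment: test compound, 48 hours, 5 concentrations. Analysis: linear interpolation between bracketing concentrations; unreached endpoints set to highest concentration. The concentration for 50% growth inhibition is given as GI50. TGI is the concentration that stops growth completely.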

How the values were obtained:
Assay in all cases: NCI tumour cell line growth inhibition, 48 h
DU-145 prostate = system: DU-145 prostate
CAKI-1 renal = system: CAKI-1 renal
TK-10 renal = system: TK-10 renal
HS 578T breast = system: HS 578T breast
T-47D breast = system: T-47D breast
LXFL 529 NSCLC = system: LXFL 529 NSCLC
DMS 114 small cell lung = system: DMS 114 small cell lung
M19-MEL melanoma = system: M19-MEL melanoma
DMS 273 small cell lung = system: DMS 273 small cell lung
HOP-18 NSCLC = system: HOP-18 NSCLC
P388/ADR leukemia = system: P388/ADR leukemia
SN12K1 renal = system: SN12K1 renal
P388 leukemia = system: P388 leukemia

Row | SMILES | TGI (DU-145 prostate) [µM] | TGI (CAKI-1 renal) [µM] | TGI (TK-10 renal) [µM] | TGI (HS 578T breast) [µM] | TGI (T-47D breast) [µM] | TGI (DMS 114 small cell lung) [µM] | TGI (M19-MEL melanoma) [µM] | TGI (DMS 273 small cell lung) [µM] | TGI (HOP-18 NSCLC) [µM] | TGI (P388/ADR leukemia) [µM] | TGI (SN12K1 renal) [µM] | further results
1 | COC(=O)[C@@H]1CC(C(C[N+](=O)[O-])c2ccc(O[Si](C)(C)C(C)(C)C)cc2)C(=O)N1C(=O)OC(C)(C)C (some centres undefined) | > 100 | > 100 | > 100 | > 100 | > 100 | – | – | – | – | – | – | –
2 | O=C1C(Cl)=C(Nc2ccc(S(=O)(=O)O)cc2)C(=O)c2ccccc21 | 36.5 | > 100 | 42.9 | 52.8 | – | – | – | – | – | – | – | –
3 | O=C(Nc1nc2ccc([N+](=O)[O-])cc2s1)C(=O)C(C(=O)c1ccccc1F)C1OC(=O)c2ccccc21 (centres undefined) | – | 98.5 | > 100 | – | – | 87.3 | > 100 | > 100 | – | – | – | TGI (LXFL 529 NSCLC): > 100 µM
4 | Cc1cc(S(=O)(=O)Nc2nc3ccccc3nc2-c2cccc([N+](=O)[O-])c2)c(S)cc1Cl | 36.8 | 39.4 | > 100 | 73.4 | 38.9 | – | – | – | – | – | – | –
5 | COc1c(Br)cc2c(c1OC)C(Br)CCC(Br)(Br)C2=O (centres undefined) | 9.64 | 8.3 | 8.39 | > 71.7 | 4.84 | – | – | – | – | – | – | –
6 | CN(C)CCCN1c2ccccc2Sc2ccc3ccccc3c21 | 25.4 | 18.1 | 17.7 | 25.6 | 5.65 | – | – | – | – | – | – | –
7 | O=C1OC2(CC1C1(O)C3CC4CC(C3)CC1C4)C1CC3CC(C1)CC2C3 (centres undefined) | – | – | > 100 | – | – | > 100 | > 100 | > 100 | 35.8 | – | – | TGI (LXFL 529 NSCLC): > 100 µM
8 | C=CC1(NC(=O)c2ccccc2)CCC(C(C)(C)C)CC1 (centres undefined) | – | – | – | – | – | > 90.7 | 84.4 | > 73.2 | > 95.6 | > 77.4 | > 96.7 | TGI (P388 leukemia): 38.4 µM
9 | O=C(c1ccccc1)c1ccc2nc(-c3c(Cl)c(Cl)c(Cl)c(Cl)c3C(=O)N/N=C/c3ccc(Cl)cc3)[nH]c2c1 | > 100 | > 100 | > 100 | > 100 | 88 | – | – | – | – | – | – | –
10 | CC(=O)Oc1cc2c(cc1OC(C)=O)OCC(c1ccccc1)C2 (centres undefined) | – | 39.2 | – | – | – | 32.3 | 45.7 | 102 | 63.2 | 11.7 | 38.6 | TGI (P388 leukemia): 9.97 µM
11 | CCN(CC)c1ccc2cc(C(=O)Nc3ccc4[nH]c(C(=O)N5C[C@@H](CCl)c6c5cc(OC(=O)Nc5ccccc5)c5[nH]cc(C)c65)cc4c3)oc2c1 | – | 9.11e-05 | – | – | – | > 1000 | 922 | – | – | > 1000 | 387 | GI50 (SN12K1 renal): 128 µM; GI50 (P388 leukemia): 89.4 µM; GI50 (DMS 114 small cell lung): 254 µM; GI50 (M19-MEL melanoma): 237 µM; GI50 (DMS 273 small cell lung): 70.4 µM
12 | OCCNCCN1CCN(CCCN2c3ccccc3Sc3ccc(C(F)(F)F)cc32)CC1 | > 100 | > 100 | 37.2 | 70.1 | 50.4 | – | – | – | – | – | – | –
13 | O=c1ssc(=Nc2ccccc2)n1-c1ccccc1 | 39.9 | – | > 100 | 98.7 | 39.1 | – | – | – | – | – | – | –
14 | N#C[C@H](OC1OC(COC2OC(CO)C(O)C(O)C2O)C(O)C(O)C1O)c1ccccc1 (some centres undefined) | – | > 250 | – | – | – | > 250 | > 250 | > 250 | > 250 | > 158 | > 250 | TGI (P388 leukemia): > 250 µM
15 | CCCc1c(-c2ccccc2)[nH]c2ccccc2c1=O | > 100 | – | > 100 | > 100 | 99.8 | – | – | – | – | – | – | –
16 | O=C(CCl)NNC1=Nc2ccc(Cl)cc2SC1 | – | – | – | – | – | 3.86 | 5.46 | 8.29 | 3.36 | 3.52 | 7.94 | TGI (P388 leukemia): 1.07 µM
